{
  "source": "patent US20240140941A1",
  "about": "“DERIVATIVE OF 2,5-DIKETOPIPERAZINE COMPOUND, AND PREPARATION METHOD THEREFOR, PHARMACEUTICAL COMPOSITION THEREOF AND USE THEREOF” (DALIAN WZ PROBIOTICS AD HEALTH CO., LTD, priority 2020, published 2024)",
  "key": {"[1]": {"system": "BxPC-3", "assay": "Inhibition test on cell proliferation (MTT), BxPC-3", "assay_type": "cell-based, human", "details": "Homo sapiens, BXPC-3, 72 h, read-out: IC50 (nM) BxPC-3", "description": "(§1) Tumor cells (NCI-H460, BxPC-3, HT-29, HCC-LM3) in the logarithmic growth phase were digested, centrifuged, and the supernatants were removed. Cells were resuspended by adding fresh culture medium, and counted using a cell counting plate. 100 μL of culture medium (containing cells) was added to a 96-well plate according to the standard of 2000 to 6000 cells per well and incubated in an incubator (37° C., 5% CO2) for 24 hours. After the cells were completely adhered to the wall, the test sample and Plinabulin were diluted to different concentrations using fresh culture medium, and 4 wells were set for each concentration. After 72 hours of drug treatment, the culture medium was removed, and 20 μL of MTT at a concentration of 5 mg/mL was added to each well. After 3-4 hours in the incubator, the MTT was discarded, and 100 μL of DMSO was added to each well, and placed in a 96-well plate shaker to completely dissolve the purple formazan. Subsequently, the absorbance (OD value) was detected at a wavelength of 490 nm using a microplate reader. The experiment also required setting up zero-setting wells (blank culture medium, MTT, DMSO). Cell inhibition rate=1−(OD value of drug-dosed group−OD value of zero-setting group)/(OD value of blank group−OD value of zero-setting group)×100%."}, "[2]": {"system": "NCI-H460", "assay": "Inhibition test on cell proliferation (MTT), NCI-H460", "assay_type": "cell-based, human", "description": "as §1"}, "[3]": {"details": "72 hours of drug treatment, MTT"}, "[4]": {"details": "Homo sapiens, NCI-H460, 72 h, 72 hours of drug treatment, MTT, read-out: IC50 (nM) NCI-H460"}, "[5]": {"details": "Homo sapiens, NCI-H460, 72 h, read-out: IC50 (nM) NCI-H460, 72 hours of drug treatment, MTT"}},
  "note": "Like-named read-outs stand apart in the source and are kept apart here.",
  "data": [
    {"smiles": "CC(C)c1c(/C=c2\\[nH]c(=O)/c(=C/c3cccc(C(=O)c4ccc(F)cc4)c3)[nH]c2=O)ncn1CCCN1CCN(C(=O)OC(C)(C)C)CC1", "note": "[PLN-2-15, (3Z,6Z)-3-(3-(p-fluorobenzoyl)phenyl)methylene-6-((5-isopropyl-1-(3-N-tert-butoxycarbonylpiperazinyl)propylimidazol-4-yl)methylene)piperazine-2,5-dione]", "values": [
      {"measurement": "IC50", "setting": "[1]; [3]", "value": "6.77 ± 0.08", "unit": "nM"},
      {"measurement": "IC50", "setting": "[2]; [4]", "value": "8.01 ± 1.24", "unit": "nM"}
    ]},
    {"smiles": "CC(C)c1c(/C=c2\\[nH]c(=O)/c(=C/c3cccc(C(=O)c4ccc(F)cc4)c3)[nH]c2=O)ncn1CCCN1CCN(C(=O)NC(C)(C)C)CC1", "note": "[PLN-2-45, (3Z,6Z)-3-(3-(p-Fluorobenzoyl)phenyl)methylene-6-((5-isopropyl-1-(3-N-tert-butylaminocarbonylpiperazinyl)propylimidazol-4-yl)methylene)piperazine-2,5-dione]", "values": [
      {"measurement": "IC50", "setting": "[1]; [3]", "value": "1.79 ± 0.49", "unit": "nM"},
      {"measurement": "IC50", "setting": "[2]; [4]", "value": "6.43 ± 1.98", "unit": "nM"}
    ]},
    {"smiles": "CC(C)c1c(/C=c2\\[nH]c(=O)/c(=C/c3cccc(C(=O)c4ccc(F)cc4)c3)[nH]c2=O)ncn1CCCN1CCN(C(=O)NC2CCCC2)CC1", "note": "[PLN-2-46, (3Z,6Z)-3-(3-(p-fluorobenzoyl)phenyl)methylene-6-((5-isopropyl-1-(3-N-cyclopentylaminocarbonylpiperazinyl)propylimidazol-4-yl)methylene)piperazine-2,5-dione]", "values": [
      {"measurement": "IC50", "setting": "[1]; [3]", "value": "9.09 ± 0.89", "unit": "nM"},
      {"measurement": "IC50", "setting": "[2]; [4]", "value": "21.6 ± 0.52", "unit": "nM"}
    ]},
    {"smiles": "CC(C)c1c(/C=c2\\[nH]c(=O)/c(=C/c3cccc(C(=O)c4ccc(F)cc4)c3)[nH]c2=O)ncn1CCCN1CCN(S(=O)(=O)c2ccccc2)CC1", "note": "[PLN-2-43, (3Z,6Z)-3-(3-(p-fluorobenzoyl)phenyl)methylene-6-((5-isopropyl-1-(3-N-phenylmethylsulfonylpiperazinyl)propylimidazol-4-yl)methylene)piperazine-2,5-dione]", "values": [
      {"measurement": "IC50", "setting": "[2]; [4]", "value": "11.1 ± 0.9", "unit": "nM"}
    ]},
    {"smiles": "O=c1[nH]/c(=C\\c2ncn(CCCN3CCNCC3)c2C2CC2)c(=O)[nH]/c1=C\\c1cccc(Oc2ccc(F)cc2)c1", "note": "[PLN-2-19]", "values": [
      {"measurement": "IC50", "setting": "[2]; [5]", "value": "213 ± 12.8", "unit": "nM"}
    ]},
    {"smiles": "CC(C)=CC(=O)N1CCN(CCCn2cnc(/C=c3\\[nH]c(=O)/c(=C/c4cccc(C(=O)c5ccc(F)cc5)c4)[nH]c3=O)c2C(C)C)CC1", "note": "[PLN-2-40, (3Z,6Z)-3-(3-(p-fluorobenzoyl)phenyl)methylene-6-((5-isopropyl-1-(3-N-(3,3-dimethyl)acryloylpiperazinyl)propylimidazol-4-yl)methylene)piperazine-2,5-dione]", "values": [
      {"measurement": "IC50", "setting": "[1]; [3]", "value": "4.4 ± 3.1", "unit": "nM"},
      {"measurement": "IC50", "setting": "[2]; [4]", "value": "7.56 ± 0.33", "unit": "nM"}
    ]},
    {"smiles": "O=c1[nH]/c(=C\\c2ncn(CCCN3CCNCC3)c2C2CC2)c(=O)[nH]/c1=C\\c1cccc(Oc2ccc(F)cc2)c1", "note": "[PLN-2-19-1]", "values": [
      {"measurement": "IC50", "setting": "[2]; read-out: IC50 (nM) NCI-H460, 72 hours of drug treatment, MTT", "value": "204 ± 4.24", "unit": "nM"}
    ]},
    {"smiles": "CC(C)c1c(/C=c2\\[nH]c(=O)/c(=C/c3cccc(C(=O)c4ccc(F)cc4)c3)[nH]c2=O)ncn1CCCN1CCN(C(=O)C2CCCCC2)CC1", "note": "[PLN-2-38, (3Z,6Z)-3-(3-(p-fluorobenzoyl)phenyl)methylene-6-((5-isopropyl-1-(3-N-cyclohexanecarbonylpiperazinyl)propylimidazol-4-yl)methylene)piperazine-2,5-dione]", "values": [
      {"measurement": "IC50", "setting": "[2]; [4]", "value": "7.3 ± 0.44", "unit": "nM"}
    ]},
    {"smiles": "CC(C)c1c(/C=c2\\[nH]c(=O)/c(=C/c3cccc(C(=O)c4ccc(F)cc4)c3)[nH]c2=O)ncn1CCCN1CCN(C(=O)OCc2ccc(B3OC(C)(C)C(C)(C)O3)cc2)CC1", "note": "[PLN-2-28, (3Z,6Z)-3-(3-(p-fluorobenzoyl)phenyl)methylene-6-((5-isopropyl-1-(3-N-p-(4,4,5,5-tetramethyl-1,3,2-dioxaborolan-2-yl)benzyloxycarbonylpiperazinyl)propylimidazol-4-yl)methylene)piperazine-2,5-dione]", "values": [
      {"measurement": "IC50", "setting": "[1]", "value": "9.22 ± 3.93", "unit": "nM"},
      {"measurement": "IC50", "setting": "[2]; [5]", "value": "15.4 ± 1.68", "unit": "nM"}
    ]},
    {"smiles": "CC(C)c1c(/C=c2\\[nH]c(=O)/c(=C/c3cccc(C(=O)c4ccc(F)cc4)c3)[nH]c2=O)ncn1CCCN1CCN(c2ccc(F)cc2)CC1", "note": "[PLN-2-26, (3Z,6Z)-3-(3-(p-fluorobenzoyl)phenyl)methylene-6-((5-isopropyl-1-(3-N-(p-fluorophenyl)piperazinyl)propylimidazol-4-yl)methylene)piperazine-2,5-dione]", "values": [
      {"measurement": "IC50", "setting": "[2]; [4]", "value": "50.1 ± 0.69", "unit": "nM"}
    ]},
    {"smiles": "CC(C)c1c(/C=c2\\[nH]c(=O)/c(=C/c3cccc(C(=O)c4ccc(F)cc4)c3)[nH]c2=O)ncn1CCCN1CCN(Cc2ccccc2)CC1", "note": "[PLN-2-25, (3Z,6Z)-3-(3-(p-fluorobenzoyl)phenyl)methylene-6-((5-isopropyl-1-(3-N-benzylpiperazinyl)propylimidazol-4-yl)methylene)piperazine-2,5-dione]", "values": [
      {"measurement": "IC50", "setting": "[2]; [4]", "value": "18.4 ± 2.95", "unit": "nM"}
    ]},
    {"smiles": "CN1CCN(CCCn2cnc(/C=c3\\[nH]c(=O)/c(=C/c4cccc(Oc5ccc(F)cc5)c4)[nH]c3=O)c2C2CC2)CC1", "note": "[PLN-2-23]", "values": [
      {"measurement": "IC50", "setting": "[2]; [4]", "value": "158 ± 25.7", "unit": "nM"}
    ]},
    {"smiles": "CC(C)c1c(/C=c2\\[nH]c(=O)/c(=C/c3cccc(C(=O)c4ccc(F)cc4)c3)[nH]c2=O)ncn1CCCN1CCN(C(=O)C2CC2)CC1", "note": "[PLN-2-35, (3Z,6Z)-3-(3-(p-fluorobenzoyl)phenyl)methylene-6-((5-isopropyl-1-(3-N-cyclopropanecarbonylpiperazinyl)propylimidazol-4-yl)methylene)piperazine-2,5-dione]", "values": [
      {"measurement": "IC50", "setting": "[1]; [3]", "value": "2.23 ± 2.2", "unit": "nM"},
      {"measurement": "IC50", "setting": "[2]; [4]", "value": "5.28 ± 0.71", "unit": "nM"}
    ]},
    {"smiles": "CC(C)c1c(/C=c2\\[nH]c(=O)/c(=C/c3cccc(C(=O)c4ccc(F)cc4)c3)[nH]c2=O)ncn1CCCN1CCN(Cc2ccc(B3OC(C)(C)C(C)(C)O3)cc2)CC1", "note": "[PLN-2-27, (3Z,6Z)-3-(3-(p-fluorobenzoyl)phenyl)methylene-6-((5-isopropyl-1-(3-N-(4-(4,4,5,5-tetramethyl-1,3,2-dioxaborolan-2-yl))benzylpiperazinyl)propylimidazol-4-yl)methylene)piperazine-2,5-dione]", "values": [
      {"measurement": "IC50", "setting": "[1]; [3]", "value": "17.9 ± 5.9", "unit": "nM"},
      {"measurement": "IC50", "setting": "[2]; [4]", "value": "23.9 ± 4.76", "unit": "nM"}
    ]},
    {"smiles": "CC(C)c1c(/C=c2\\[nH]c(=O)/c(=C/c3cccc(C(=O)c4ccc(F)cc4)c3)[nH]c2=O)ncn1CCCN1CCN(C(=O)c2ccccc2)CC1", "note": "[PLN-2-41, (3Z,6Z)-3-(3-(p-fluorobenzoyl)phenyl)methylene-6-((5-isopropyl-1-(3-N-benzoylpiperazinyl)propylimidazol-4-yl)methylene)piperazine-2,5-dione]", "values": [
      {"measurement": "IC50", "setting": "[1]; [3]", "value": "3.25 ± 2.13", "unit": "nM"},
      {"measurement": "IC50", "setting": "[2]; [4]", "value": "5.55 ± 1.68", "unit": "nM"}
    ]},
    {"smiles": "CC(C)c1c(/C=c2\\[nH]c(=O)/c(=C/c3cccc(C(=O)c4ccc(F)cc4)c3)[nH]c2=O)ncn1CCCN1CCN(C=O)CC1", "note": "[PLN-2-29, (3Z,6Z)-3-(3-(p-fluorobenzoyl)phenyl)methylene-6-((5-isopropyl-1-(3-N-formylpiperazinyl)propylimidazol-4-yl)methylene)piperazine-2,5-dione]", "values": [
      {"measurement": "IC50", "setting": "[1]; [3]", "value": "1.4 ± 0.04", "unit": "nM"},
      {"measurement": "IC50", "setting": "[2]; [4]", "value": "3.46 ± 0.25", "unit": "nM"}
    ]},
    {"smiles": "CC(C)c1c(/C=c2\\[nH]c(=O)/c(=C/c3cc(F)ccc3F)[nH]c2=O)ncn1CCCN1CCN(C)CC1", "note": "[PLN-2-24]", "values": [
      {"measurement": "IC50", "setting": "[1]; [3]", "value": "13.19 ± 0.07", "unit": "nM"},
      {"measurement": "IC50", "setting": "[2]; [4]", "value": "28.6 ± 1.4", "unit": "nM"}
    ]},
    {"smiles": "CC(C)c1c(/C=c2\\[nH]c(=O)/c(=C/c3cccc(C(=O)c4ccc(F)cc4)c3)[nH]c2=O)ncn1CCCN1CCN(C(=O)C23CC4CC(CC(C4)C2)C3)CC1", "note": "[PLN-2-39, (3Z,6Z)-3-(3-(p-fluorobenzoyl)phenyl)methylene-6-((5-isopropyl-1-(3-N-adamantanecarbonylpiperazinyl)propylimidazol-4-yl)methylene)piperazine-2,5-dione]", "values": [
      {"measurement": "IC50", "setting": "[2]; [5]", "value": "37.2 ± 3.61", "unit": "nM"}
    ]},
    {"smiles": "CC(C)c1c(/C=c2\\[nH]c(=O)/c(=C/c3ccc(F)cc3)[nH]c2=O)ncn1CCCN1CCOCC1", "note": "[PLN-2-11, (3Z,6Z)-3-p-fluorobenzylidene-6-((5-isopropyl-1-(−3-morpholinyl)propylimidazol-4-yl)methylene)piperazine-2,5-dione]", "values": [
      {"measurement": "IC50", "setting": "[2]; [4]", "value": "234 ± 25.7", "unit": "nM"}
    ]}
  ]
}
